The values below come from patent US11154550B2, “Treatment for neurodegeneration” (The University of Birmingham, priority 2012, dated 2021).

Entries after “also recorded” stand apart in the source; their conditions may differ. Counter-ions that a name gives are not always drawn. Like-named read-outs stand apart in the source and are kept apart here.

The test system of test [1] is C7, KD2 and KD3 cell lines (SK-N-AS derived). In words: Cell cycle analysis (propidium iodide DNA content cytometry) in drug-treated C7, KD2 and KD3 cells. Type of test: cell-based, human. To be noted: 24 hours, up to 100 μM. The procedure: The C7 cell suspension were poured into sterile reagent reservoir labelled C7 and using multichannel pipette, 50 μl of cell suspension were dispense into each well. Then 50 μl of 2× culture media was added into each well. Plating was repeated for KD2 and KD3 cell lines. One plate of ‘zero day control’ was also prepared per experiment. On ‘zero day control’ plate, C7 cell line were plated into columns 1, 2, 7 and 8; KD2 cell line were plated into columns 3, 4, 9 and 10; KD3 cell line were plated into columns 5, 6, 11 and 12. Cells were plated at the same density for both ‘zero day control’ and experiment plates. The ‘zero day control’ plate remains untreated and is to be harvested just before the drugs were added into the treatment plates.
For each drug, 2× working solutions are prepared in culture medium and added to the cultures. The highest drug concentration is 100 μM and final solvent (H2O/DMSO) concentration in the cultures is 1%.
Using an 8-multichannel pipetor, 100 μl of 2× final drug concentrations were gently dispensed into the culture plates of C7, KD2 and KD3 cells. The time of the treatment was noted and cells were transferred back into 37° C./5% CO2 humidified incubator and were incubated for 24 hours.
The propidium iodide staining was used to determine the cell cycle phase of the cells based on DNA content.
To determine cut-offs for cells in different phases of the cell cycle, gate setting was performed based on the G1 and G2 peaks on the DNA content histogram. To determine the G1 and G2 peaks, the 3° total intensity in 20% histograms was analysed for each plate. Gates calculated were manually entered into the Acumen software.
(§1) The data exported and quantified included separately all cells and single cells. Single cells were further subcategorised into euploid, apoptotic and polyploid cells. Euploid cells were additionally classified into cells in G1 S and G2M phases of the cell cycle.

Another test concerns p21cip1. In words: p21cip1 immunostaining and cytometry in drug-treated C7, KD2 and KD3 cells. Type of test: cell-based, human. As for the experimental part: BSA was removed from the plates after 30 minutes incubation. To C7, KD2 and KD3 plates, 50 μl of primary antibody (p21; Abcam ab7903; 1/1000 in PBST) solution was added to each well. On ‘zero day control’ plate, 50 μl of the primary antibody was added to columns 1-6 while columns 7-12 received only 50 μl PBST on each well. These (columns 7-12) serve as a negative controls and will received secondary antibody only. Plates were then wrapped in cling film and were incubated at +4° C. overnight. The following day, p21 primary antibody solution was removed from the plates and cells were washed by adding 200 μl of PBST. This was repeated once (total of 2 washes) and all plates were then subjected to secondary antibody treatment. Secondary antibody solution was made using am IgG-FITC (Abcam ab6785; 1/200 in PBST) and 50 μl was added to each well. Plates were then wrapped in aluminium foil to protect from light and were incubated at +4° C. for 2 hours. The immunostaining was used to measure the content of p21^cip1 in the cells. Measurement was carried out using a laser triggering the 1° channel (bandpass filter 500-530 nm). The total fluorescence intensity from the 1° channel was used to compare total protein levels in the different cell populations defined above. Mean fluorescence intensity per cell (for the whole of the population) and mean fluorescence intensity per cell (for positive cells only) were analysed separately. Additionally the proportion of positive cells in each population was calculated.

For test [2], the system named is C7, KD2 and KD3 cell lines (SK-N-AS derived). In words: Apoptotic fraction in p21 positive versus p21 negative cells of drug-treated C7, KD2 and KD3 cultures. Type of test: cell-based, human. The procedure:
as §1
The total fluorescence intensity from the 1° channel was used to compare total protein levels in the different cell populations defined above. Mean fluorescence intensity per cell (for the whole of the population) and mean fluorescence intensity per cell (for positive cells only) were analysed separately. Additionally the proportion of positive cells in each population was calculated.

A further test deals with p21. In words: p21 fluorescent immunocytochemistry followed by high content cytometry in drug-treated SHSY-5Y cells. To be noted: neuroblastoma cells. Type of test: cell-based, Human. The procedure: (§2) Human SHSY-5Y neuroblastoma cells were grown in DMEM:F12 supplemented with 10% FCS, penicillin (100 units/mil), streptomycin (100 μg/ml) and L-glutamine. The cells were plated for 24 hours into 96 well plates (5000 cells per well) before treatment with drugs. Each drug (doses applied in separate figures) and the control (DMSO) were applied to 8 technical replicate wells. After 24 hours treatment the cells were harvested by fixation in Glyofix and were post-fixed with ice cold 85% ethanol.
(§3) For P21^cip staining, the alcohol was aspirated and replaced with 100 μl/well blocking solution (5% BSA in PBST [1:1000 Triton X]) and incubated for 30 minutes at room temperature. After aspirating the blocking solution, 50 μl/well primary antibody solution (monoclonal P21 Abcam, 1:1000 in PBST) was added and incubated over night at 4° C. and PBST was applied as negative control. The next day, the cells were washed by twice aspirating 200 μl/well PBST. Afterwards, 50 μl/well secondary antibody solution (Anti-mouse IgG-FITC, Abcam, 1:200 in PBST) was added, protecting the solutions and plates from light, and incubated overnight at +4° C. The next day, the cells were washed twice with 200 μl/well PBST and stained with propidium iodide solution. […]. The composition of the propidium iodide staining solution was 0.1% Triton-X-100, […] propidium iodide, […] RNase A in PBS. The cells were incubated with the staining solution for 25 minutes at 37° C., and then DNA content based on total fluorescence was measured with a High Content Cytometer (Acumen). This allows rapid analysis of whole 96 well plates with resolution equivalent to a 20× microscope objective. The measurement of p21 content of cells and nuclei was based on the direct measurement of fluorescent intensity.

For test [3], the system named is Human SHSY-5Y neuroblastoma cells. Briefly: High content cytometry apoptosis assay in drug-treated SHSY-5Y cells. Type of test: cell-based. As to conditions: 24 hours; for cell death: up to 200 microM. As for the experimental part: as §2, §3
The mark [4] stands for this setting: all three cell lines (C7, KD2, KD3).
Setting [5] is: all cell lines (C7, KD2, KD3), 24 hours.
Setting [6] is: G1 and G2 subpopulations, all three cell lines.

Turning to `CCN(CC)CCCC(C)Nc1ccnc2cc(Cl)ccc12` (stereo not shown) [Chloroquine diphosphate], the cell cycle effects entry in test [1] (setting [4]) was “no significant effect”; in test [1] (all three cell lines (C7, KD2, KD3), listed as chloroquine diphosphate), “no significant cell cycle regulatory effects”. Besides, the “proportion of protein positive cells” value in the test with p21cip1 (C7 cells) is “increased proportion”; in the test on p21cip1 (KD2 and KD3 cells), “increased”. Also, the p21 expression entry in the test on p21cip1 (C7 cells, G1 and G2M) is on record as “significantly increased”; in the test on p21cip1 (KD2 cells, G2M phase), “up-regulated”; in the test on p21cip1 (KD3 cell line, G1), “upregulation”; with p21cip1 (setting [5]), “up-regulates”. Further, the “population of positive cells” value with p21cip1 (all cell lines) is “increases”. For the same molecule, the “apoptosis in p21 positive cells relative to p21 negative cells” value in test [2] is given as “significantly less likely to be apoptotic; also recorded: significantly reduced cell death”.

As for `Nc1ccc(S(=O)(=O)c2ccc(N)cc2)cc1` [Dapsone, 4-Aminophenyl sulfone], the cell cycle effects entry in test [1] (setting [4]) is recorded as “No cell cycle effects”. In the test on p21cip1 (setting [5]), the p21 expression entry is given as “significantly up-regulates”. In test [2], the “apoptosis in p21 positive cells relative to p21 negative cells” value is “significant reduction of apoptotic cells”.

With `CC(=O)O[C@H]1C[C@@]2(C)[C@@H](C[C@@H](O)[C@H]3[C@@]4(C)CC[C@@H](O)[C@@H](C)[C@@H]4CC[C@@]32C)/C1=C(\CCC=C(C)C)C(=O)O` [Fusidic acid], the cell cycle effects entry in test [1] (setting [4]) is reported as “weak G2 inhibitor”. Also, the p21 expression result in the test on p21cip1 (setting [5]) is “significant increase; also recorded: induces significant p21 expression”. Besides, the “apoptosis in p21 positive cells relative to p21 negative cells” value in test [2] is “reduction of apoptosis”.

Turning to `Cc1cc(C2CCCCC2)n(O)c(=O)c1` [CPX, Ciclopirox Olamine], the cell cycle effects result in test [1] (setting [4]) is recorded as “slight G1 cell cycle arrest”. In addition, the p21 expression entry is on record as “induces significant p21 expression” with p21cip1 (setting [6]) and “up-regulates” in the test on p21cip1 (setting [5]). Moreover, the “apoptosis in p21 positive cells relative to p21 negative cells” value in test [2] was “significant reduction of apoptotic cells; also recorded: reduced cell death”.

For the molecule `CC(C(=O)O)c1ccc(-c2ccccc2)c(F)c1` (racemic) [Flurbiprofen], in the test on p21 (0.01 and 0.1 microM, 24 hours), the p21 expression result is on record as “significantly increase” and the “p21 expression in the nuclear compartment” value is given as “significantly increase”. Further, the “expression and/or the functional activity of p21” value in the test on p21 is given as “increased”. Further, the apoptotic cell death result in test [3] (0.01 and 0.1 microM) is given as “reduce apoptosis; also recorded: significantly reduce; also recorded: reduce apoptotic cell death”.

Consider `CN(C)C(=O)C(CCN1CCC(O)(c2ccc(Cl)cc2)CC1)(c1ccccc1)c1ccccc1` [Loperamide, Loperamide hydrochloride], for which, in test [1] (all three cell lines (C7, KD2, KD3), hydrochloride), the cell cycle effects result was “weak G1 inhibitor; also recorded: weak G1 cell cycle arrest”. Moreover, the values for the p21 expression result in the test with p21cip1 (setting [6]) and with p21cip1 (setting [5]) were “induce” and “up-regulates”, respectively. Moreover, the “apoptosis in p21 positive cells relative to p21 negative cells” value in test [2] (hydrochloride) is listed as “significant reduction of apoptosis; also recorded: reduces apoptosis significantly”; in test [2] (listed as Loperamide hydrochloride, hydrochloride), “significant reduction of apoptosis”.

On to `O=C([O-])CCCc1ccccc1.[Na+]` [4-PBA, Sodium 4-phenylbutyrate], for which the cell cycle effects entry in test [1] (setting [4]) is given as “no effects”. Further, the p21 expression entry was “induces; also recorded: relatively small” in the test with p21cip1 (G2 cell population, all three cell lines) and “induces” with p21cip1 (G2 cell population, all three cell lines, listed as Sodium 4-phenylbutyrate). The “apoptosis in p21 positive cells relative to p21 negative cells” value in test [2] is “significantly reduced apoptosis”.

Take `CCCC(CCC)C(=O)[O-].[Na+]` [SV, Sodium Valproate]: the results for the cell cycle effects result in test [1] (C7 cell line), in test [1] (KD2 cell line) and in test [1] (KD3 cell line) were “slight G2 arrest; also recorded: not seen”, “G1 inhibition; also recorded: slight G1 inhibitor effect” and “G1 inhibition; also recorded: slight G1 inhibitor effect”, respectively. Moreover, the p21 protein expression entry in the test with p21cip1 (G2 sub-population of cells, 1 μM, 24 hours) was “significant upregulation”. In addition, in the test on p21cip1 (setting [5]), the p21 expression result is “modest”. Also, the “apoptosis in p21 positive cells relative to p21 negative cells” value in test [2] is given as “significant reduction of apoptotic fraction”.

`C[C@@H](CN1CC(=O)NC(=O)C1)N1CC(=O)NC(=O)C1` [Dexrazoxane]: the “expression and/or the functional activity of p21” value in the test with p21 is recorded as “increased”. In the test with p21 (up to 200 microM, 24 hours), the p21 expression entry was “significantly increase”. Further, the cell death result in test [3] is on record as “reduce neuronal cells death; also recorded: significantly reduced cell death”; in test [3] (listed as Dexrasoxane), “reduce apoptosis; also recorded: significantly reduced cell death”.
